Molecules are shown by their SMILES.

Kappa-type opioid receptor (Cavia porcellus, UniProt P41144), sequence (P41144 whole entry): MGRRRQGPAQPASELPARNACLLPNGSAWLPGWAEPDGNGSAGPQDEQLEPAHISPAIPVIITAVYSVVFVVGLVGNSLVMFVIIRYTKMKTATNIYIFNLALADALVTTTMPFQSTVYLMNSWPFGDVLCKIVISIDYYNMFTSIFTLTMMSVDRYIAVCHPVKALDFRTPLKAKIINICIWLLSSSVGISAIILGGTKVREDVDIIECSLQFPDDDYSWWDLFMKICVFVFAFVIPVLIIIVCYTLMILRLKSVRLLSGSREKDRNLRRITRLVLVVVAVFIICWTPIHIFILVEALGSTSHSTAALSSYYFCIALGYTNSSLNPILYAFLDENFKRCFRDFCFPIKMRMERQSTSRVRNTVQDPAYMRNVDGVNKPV

In one test the target is Kappa-type opioid receptor (Homo sapiens, UniProt P41145). The test is described as follows: Agonist activity at recombinant human kappa-type opioid receptor expressed in HEK293 cells after 30 mins by [35S]GTPgammaS binding assay. It counts as functional, cell-based.
Kappa-type opioid receptor (Homo sapiens, UniProt P41145), sequence (P41145 whole entry): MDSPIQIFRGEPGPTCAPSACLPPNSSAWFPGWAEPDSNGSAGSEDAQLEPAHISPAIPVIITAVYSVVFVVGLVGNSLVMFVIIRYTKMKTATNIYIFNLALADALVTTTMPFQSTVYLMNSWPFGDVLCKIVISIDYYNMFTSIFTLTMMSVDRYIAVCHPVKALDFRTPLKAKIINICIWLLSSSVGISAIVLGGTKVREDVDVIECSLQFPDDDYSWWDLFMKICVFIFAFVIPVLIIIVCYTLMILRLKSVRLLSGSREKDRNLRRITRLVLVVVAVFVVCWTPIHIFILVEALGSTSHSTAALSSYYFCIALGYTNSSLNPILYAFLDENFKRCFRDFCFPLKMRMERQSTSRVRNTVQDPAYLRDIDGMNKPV
The term EC50 denotes the midpoint of the concentration-response curve. For `CC(C)NC(=O)N1CCN(C(=O)Cc2ccc(Cl)c(Cl)c2)[C@@H]2[C@@H](N3CCCC3)CCC[C@@H]21`, the 50% effective concentration (EC50) turned out to be 4.5 nM.

Take `COC(=O)N1CCN(C(=O)Cc2ccc(Cl)c(Cl)c2)[C@@H]2[C@@H](N(C)C)CCC[C@@H]21`: the EC50 came out at 1 nM.

In the case of `CS(=O)(=O)N1CCN(C(=O)Cc2ccc(Cl)c(Cl)c2)[C@@H]2[C@@H](N3CCCC3)CCC[C@@H]21`, the EC50 was 1.5 nM.

For `CS(=O)(=O)N1CCN(C(=O)Cc2ccc(F)c(Cl)c2)[C@@H]2[C@@H](N3CC[C@H](O)C3)CCC[C@@H]21`, the EC50 worked out at 5.9 nM.

In the case of `COC(=O)N1CCN(C(=O)Cc2ccc(F)c(Cl)c2)[C@@H]2[C@@H](N3CC[C@H](O)C3)CCC[C@@H]21`, the EC50 is 2.2 nM.

With `COC(=O)N1CCN(C(=O)Cc2ccc(Cl)cc2)[C@@H]2[C@@H](N3CC[C@H](O)C3)CCC[C@@H]21`, the EC50 was 14 nM.

The next test relates to Mus musculus. Kind of test: Antiinflammatory activity in arachidonic acid-induced ear dermatitis ICR mouse model assessed as reduction in ear swelling at 3 mg administered twice tropically 30 mins prior and 15 mins after arachidonic acid addition measured 60 mins post arachidonic acid challenge relative to control. It counts as functional.
Consider `CS(=O)(=O)N1CCN(C(=O)Cc2ccc(F)c(Cl)c2)[C@@H]2[C@@H](N3CC[C@H](O)C3)CCC[C@@H]21`, for which the “inhibition (INH)” value is on record as 69%.

For the compound `COC(=O)N1CCN(C(=O)Cc2ccc(F)c(Cl)c2)[C@@H]2[C@@H](N3CC[C@H](O)C3)CCC[C@@H]21`, the “inhibition (INH)” value was determined as 66%.

`COC(=O)N1CCN(C(=O)Cc2ccc(Cl)cc2)[C@@H]2[C@@H](N3CC[C@H](O)C3)CCC[C@@H]21`: the “inhibition (INH)” value turned out to be 62%.

Target in another test: not listed separately
Kind of test: Displacement of [3H]DPDPE from delta-type opioid receptor in guinea pig brain membranes after 120 mins by solid scintillation counting. Type of test: cell membranes, Cavia porcellus, Membrane. (Displacement assays read how much labelled ligand stays bound in the presence of the test substance.)
One may read the Ki as the dissociation constant of the complex between target and ligand, obtained from inhibition or displacement. Low values mean tighter binding, high ones weaker binding. `CC(C)NC(=O)N1CCN(C(=O)Cc2ccc(Cl)c(Cl)c2)[C@@H]2[C@@H](N3CCCC3)CCC[C@@H]21`: the Ki was 237 nM.

Compound `COC(=O)N1CCN(C(=O)Cc2ccc(Cl)c(Cl)c2)[C@@H]2[C@@H](N(C)C)CCC[C@@H]21` yielded a Ki of 7.9 nM.

Turning to `CS(=O)(=O)N1CCN(C(=O)Cc2ccc(Cl)c(Cl)c2)[C@@H]2[C@@H](N3CCCC3)CCC[C@@H]21`, the affinity, expressed as Ki, was 1090 nM.

With `CS(=O)(=O)N1CCN(C(=O)Cc2ccc(F)c(Cl)c2)[C@@H]2[C@@H](N3CC[C@H](O)C3)CCC[C@@H]21`, the Ki came to 575 nM.

Consider `COC(=O)N1CCN(C(=O)Cc2ccc(F)c(Cl)c2)[C@@H]2[C@@H](N3CC[C@H](O)C3)CCC[C@@H]21`, for which the Ki was 61 nM.

As to `COC(=O)N1CCN(C(=O)Cc2ccc(Cl)cc2)[C@@H]2[C@@H](N3CC[C@H](O)C3)CCC[C@@H]21`, the Ki amounted to 451 nM.

Another test addresses Kappa-type opioid receptor (Cavia porcellus, UniProt P41144). The test is described as follows: Displacement of [3H]U-69,593 from kappa-type opioid receptor in guinea pig brain membranes after 120 mins by solid scintillation counting. It counts as cell membranes, Membrane.
Compound `CC(C)NC(=O)N1CCN(C(=O)Cc2ccc(Cl)c(Cl)c2)[C@@H]2[C@@H](N3CCCC3)CCC[C@@H]21` displayed an inhibition constant Ki of 2.5 nM.

Turning to `COC(=O)N1CCN(C(=O)Cc2ccc(Cl)c(Cl)c2)[C@@H]2[C@@H](N(C)C)CCC[C@@H]21`, the Ki came to 0.16 nM.

In the case of `CS(=O)(=O)N1CCN(C(=O)Cc2ccc(Cl)c(Cl)c2)[C@@H]2[C@@H](N3CCCC3)CCC[C@@H]21`, the Ki is 0.31 nM.

In turn, `CS(=O)(=O)N1CCN(C(=O)Cc2ccc(F)c(Cl)c2)[C@@H]2[C@@H](N3CC[C@H](O)C3)CCC[C@@H]21` yielded a Ki of 1.7 nM.

Take `COC(=O)N1CCN(C(=O)Cc2ccc(F)c(Cl)c2)[C@@H]2[C@@H](N3CC[C@H](O)C3)CCC[C@@H]21`: the Ki turned out to be 0.82 nM.

Consider `COC(=O)N1CCN(C(=O)Cc2ccc(Cl)cc2)[C@@H]2[C@@H](N3CC[C@H](O)C3)CCC[C@@H]21`, for which the affinity, expressed as Ki, was 0.65 nM.

The next test relates to Mus musculus. The test is described as follows: Antiinflammatory activity in arachidonic acid-induced ear dermatitis ICR mouse model assessed as reduction in ear swelling at 0.1 mg administered twice tropically 30 mins prior and 15 mins after arachidonic acid addition measured 60 mins post arachidonic acid challenge relative to control. It counts as functional.
Take `CS(=O)(=O)N1CCN(C(=O)Cc2ccc(F)c(Cl)c2)[C@@H]2[C@@H](N3CC[C@H](O)C3)CCC[C@@H]21`: the “inhibition (INH)” value is reported as 22%.

As to `COC(=O)N1CCN(C(=O)Cc2ccc(F)c(Cl)c2)[C@@H]2[C@@H](N3CC[C@H](O)C3)CCC[C@@H]21`, the “inhibition (INH)” value is reported as -12%.

Turning to `COC(=O)N1CCN(C(=O)Cc2ccc(Cl)cc2)[C@@H]2[C@@H](N3CC[C@H](O)C3)CCC[C@@H]21`, the “inhibition (INH)” value is 24%.

A further test deals with Mu-type opioid receptor (Cavia porcellus, UniProt P97266). Kind of test: Displacement of [3H]DAMGO from mu-type opioid receptor in guinea pig brain membranes after 120 mins by solid scintillation counting. It counts as cell membranes, Membrane.
Mu-type opioid receptor, sequence (P97266 whole entry): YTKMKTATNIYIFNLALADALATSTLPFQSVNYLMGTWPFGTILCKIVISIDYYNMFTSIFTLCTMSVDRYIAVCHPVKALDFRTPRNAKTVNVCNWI
In turn, `CS(=O)(=O)N1CCN(C(=O)Cc2ccc(Cl)c(Cl)c2)[C@@H]2[C@@H](N3CCCC3)CCC[C@@H]21` had a Ki of 91 nM.

Turning to `COC(=O)N1CCN(C(=O)Cc2ccc(F)c(Cl)c2)[C@@H]2[C@@H](N3CC[C@H](O)C3)CCC[C@@H]21`, affinity was put at a Ki of 1300 nM.

Consider `COC(=O)N1CCN(C(=O)Cc2ccc(Cl)cc2)[C@@H]2[C@@H](N3CC[C@H](O)C3)CCC[C@@H]21`, for which the inhibition constant Ki stood at 365 nM.

Another test concerns Mus musculus. The test is described as follows: Antiinflammatory activity in arachidonic acid-induced ear dermatitis ICR mouse model assessed as reduction in ear swelling at 0.3 mg administered twice tropically 30 mins prior and 15 mins after arachidonic acid addition measured 60 mins post arachidonic acid challenge relative to control. Type of test: functional.
`CS(=O)(=O)N1CCN(C(=O)Cc2ccc(F)c(Cl)c2)[C@@H]2[C@@H](N3CC[C@H](O)C3)CCC[C@@H]21`: the “inhibition (INH)” value turned out to be 43%.

Take `COC(=O)N1CCN(C(=O)Cc2ccc(F)c(Cl)c2)[C@@H]2[C@@H](N3CC[C@H](O)C3)CCC[C@@H]21`: the “inhibition (INH)” value is -4%.

Take `COC(=O)N1CCN(C(=O)Cc2ccc(Cl)cc2)[C@@H]2[C@@H](N3CC[C@H](O)C3)CCC[C@@H]21`: the “inhibition (INH)” value turned out to be 27%.

For another test, the system named is Mus musculus. The test is described as follows: Antiinflammatory activity in arachidonic acid-induced ear dermatitis ICR mouse model assessed as reduction in ear swelling at 1 mg administered twice tropically 30 mins prior and 15 mins after arachidonic acid addition measured 60 mins post arachidonic acid challenge relative to control. Type of test: functional.
With `CS(=O)(=O)N1CCN(C(=O)Cc2ccc(F)c(Cl)c2)[C@@H]2[C@@H](N3CC[C@H](O)C3)CCC[C@@H]21`, the “inhibition (INH)” value stood at 56%.

On to `COC(=O)N1CCN(C(=O)Cc2ccc(F)c(Cl)c2)[C@@H]2[C@@H](N3CC[C@H](O)C3)CCC[C@@H]21`, for which the “inhibition (INH)” value is 58%.

For `COC(=O)N1CCN(C(=O)Cc2ccc(Cl)cc2)[C@@H]2[C@@H](N3CC[C@H](O)C3)CCC[C@@H]21`, the “inhibition (INH)” value is 27%.

(Values after ChEMBL document CHEMBL4007424, “Design and Synthesis of Enantiomerically Pure Decahydroquinoxalines as Potent and Selective κ-Opioid Receptor Agonists with Anti-Inflammatory Activity in Vivo” (J Med Chem, 2017).)
